Measured values as given in patent US7250157B2, “Dermatological compositions and methods” (Applied Genetics Incorporated Dermatics, priority 1996, dated 2007).
Structures can show the parent of a compound that is named as a salt.

System: tyrosinase activity in S91 mouse melanoma cells
Experiment: Induction of tyrosinase activity in S91 cells
Settings: for relative melanogenic potency in S91 cells (in words): Table 19 data

1-(exo & endo-2-norbornyl-)-propan-1,2-diol
Fold Induction of Tyrosinase Relative to Controls (0.5 mM (Table 16)): 2.2X | Fold Induction of Tyrosinase Relative to Controls (1 mM (Table 16)): 4.2X | Fold Induction of Tyrosinase Relative to Controls (2.5 mM (Table 16)): 48.5X | Fold Induction of Tyrosinase Relative to Controls (5 mM (Table 16)): 2.0X

2,3-cis & trans-bornanediol
Fold Induction of Tyrosinase Relative to Controls (0.5 mM (Table 19)): 9.9X | Fold Induction of Tyrosinase Relative to Controls (1 mM (Table 19)): 37.3X | Fold Induction of Tyrosinase Relative to Controls (2.5 mM (Table 19)): 99.7X | relative melanogenic potency in S91 cells (in words): approximately twice as much melanogenic activity as (1R, 2R, 3S, 5R)-(−)-pinanediol

2,5 & 6,7-norbornanetriol
Fold Induction of Tyrosinase Relative to Controls (1 mM (Table 15)): 5.1X | Fold Induction of Tyrosinase Relative to Controls (2 mM (Table 15)): 5.1X

O=COC1CC2CCC1C2 (racemic) [± exo-2-norbornyl formate]
Fold Induction of Tyrosinase Relative to Controls (1 mM (Table 15)): 2.7X | Fold Induction of Tyrosinase Relative to Controls (5 mM (Table 15)): 2.3X

CC1=C[C@H](O)[C@H]2C[C@@H]1C2(C)C (relative stereo) [(S)-cis-verbenol]
Fold Induction of Tyrosinase Relative to Controls (0.5 mM (Table 19)): 1.0X | Fold Induction of Tyrosinase Relative to Controls (1 mM (Table 19)): 3.0X | Fold Induction of Tyrosinase Relative to Controls (2.5 mM (Table 19)): 15.5X

C[C@@H]1CC[C@@H](C(C)(C)O)[C@H](O)C1 (relative stereo) [trans-p-menthane-3,8-diol]
Fold Induction of Tyrosinase Relative to Controls (0.5 mM (Table 19)): 5.2X | Fold Induction of Tyrosinase Relative to Controls (1 mM (Table 19)): 13.2X | Fold Induction of Tyrosinase Relative to Controls (2.5 mM (Table 19)): 21.0X | Fold Induction of Tyrosinase Relative to Controls (5 mM (Table 19)): 7.3X

C=C(C)C1CC=C(C)CC1 (single isomer, unassigned; (+)) [R-(+)-limonene, (+)-p-mentha-1,8-diene]
relative melanogenic potency in S91 cells (in words): little or no melanogenic activity

CC1C(O)CC2CC1C2(C)C (single isomer, unassigned; (-)) [(−)-isopinocampheol]
Fold Induction of Tyrosinase Relative to Controls (0.5 mM (Table 19)): 2.3X | Fold Induction of Tyrosinase Relative to Controls (1 mM (Table 19)): 3.3X | detachment of cells from culture dishes (no tyrosinase analysis) (2.5 mM (Table 19)): NA^2 | toxicity to S91 cells (in words) (higher concentrations tested (Table 19)): resulted in detachment of cells from culture dishes

CC1(C)C2CCC(CO)[C@]1(O)C2 (stereo in doubt) [(1R)-(−)-trans-pinane-1,10-diol]
Fold Induction of Tyrosinase Relative to Controls (1 mM (Table 19)): 14.3X | Fold Induction of Tyrosinase Relative to Controls (2.5 mM (Table 19)): 96.0X | Fold Induction of Tyrosinase Relative to Controls (5 mM (Table 19)): 36.8X | relative melanogenic potency in S91 cells (in words): almost-identical to that of (1R, 2R, 3S, 5R)-(−)-pinanediol

OC[C@@H]1CCCC[C@@H]1CO [1,2-cis-cyclohexanedimethanol]
Fold Induction of Tyrosinase Relative to Controls (1 mM (Table 16)): 0.9X | Fold Induction of Tyrosinase Relative to Controls (2.5 mM (Table 16)): 6.1X | detachment of cells from culture dishes (no tyrosinase analysis) (5 mM (Table 16)): NA^

OCC1CCC(CO)CC1 (stereo not shown) [1,4-cyclohexanedimethanol]
Fold Induction of Tyrosinase Relative to Controls (1 mM (Table 16)): 1.2X | Fold Induction of Tyrosinase Relative to Controls (2.5 mM (Table 16)): 1.7X | Fold Induction of Tyrosinase Relative to Controls (5 mM (Table 16)): 3.2X

OC1C2CCC(C2)C1O (stereo not drawn) [2,3-c/e-NBaneD, 2,3-cis/exo-Norbornanediol]
induction of tyrosinase in S91 cells compared with 5-NBene-2,2-DM (FIG. 2): Lesser induction

CC1(C)C2CCC1(C)C(O)C2O (stereo not drawn) [2,3-cis/exo-bornanediol]
Fold Induction of Tyrosinase Relative to Controls (0.5 mM (Table 19)): 10.2X | Fold Induction of Tyrosinase Relative to Controls (1 mM (Table 19)): 28.5X | Fold Induction of Tyrosinase Relative to Controls (2.5 mM (Table 19)): 101X | relative melanogenic potency in S91 cells (in words): more than twice as potent as 2,3-trans-bornanediol

CC1(C)C2CCC1(C)C(O)C2O (stereo not drawn) [2,3-trans-bornanediol]
Fold Induction of Tyrosinase Relative to Controls (0.5 mM (Table 19)): 4.7X | Fold Induction of Tyrosinase Relative to Controls (1 mM (Table 19)): 12.8X | Fold Induction of Tyrosinase Relative to Controls (2.5 mM (Table 19)): 22.1X

OC1CC2CCC1C2O (stereo not shown) [2,7-norbornanediol]
Fold Induction of Tyrosinase Relative to Controls (1 mM (Table 16)): 0.8X | Fold Induction of Tyrosinase Relative to Controls (2.5 mM (Table 16)): 1.6X | Fold Induction of Tyrosinase Relative to Controls (5 mM (Table 16)): 3.5X

OCC1(O)CC2CCC1C2 (stereo not shown) [2-hydroxy-2-norbornanemethanol]
Fold Induction of Tyrosinase Relative to Controls (1 mM (Table 16)): 9.2X | Fold Induction of Tyrosinase Relative to Controls (2.5 mM (Table 16)): 15.5X | Fold Induction of Tyrosinase Relative to Controls (5 mM (Table 16)): 45.0X

O=C(O)CC1CC2CCC1C2 (stereo not shown) [2-norbornaneacetic acid]
Fold Induction of Tyrosinase Relative to Controls (1 mM (Table 15)): 4.6X | Fold Induction of Tyrosinase Relative to Controls (5 mM (Table 15)): 12.9X

OCC1(CO)CC=CCC1 [3-cyclohexane-1,1-dimethanol]
Fold Induction of Tyrosinase Relative to Controls (1 mM (Table 16)): 1.4X | Fold Induction of Tyrosinase Relative to Controls (2.5 mM (Table 16)): 2.3X | Fold Induction of Tyrosinase Relative to Controls (5 mM (Table 16)): 7.0X

O=C(O)[C@@H]1[C@H](C(=O)O)[C@@H]2C=C[C@H]1C2 [5-norbornene-2,3-cis/endodicarboxylic acid]
Fold Induction of Tyrosinase Relative to Controls (1 mM (Table 15)): 2.2X | Fold Induction of Tyrosinase Relative to Controls (5 mM (Table 15)): 1.0X

CC1(C)C2CC=C(CO)[C@@H]1C2 [(1R)-(−)-myrtenol, (1R)-2-pinen-10-ol]
Fold Induction of Tyrosinase Relative to Controls (0.5 mM (Table 19)): 13.6X | Fold Induction of Tyrosinase Relative to Controls (1 mM (Table 19)): 17.6X | Fold Induction of Tyrosinase Relative to Controls (2.5 mM (Table 19)): 2.2X

CC1CCC2CC1C2(C)C [(1R)-(−)-α-pinane]
Fold Induction of Tyrosinase Relative to Controls (0.5 mM (Table 19)): 1.2X | Fold Induction of Tyrosinase Relative to Controls (1 mM (Table 19)): 0.8X | Fold Induction of Tyrosinase Relative to Controls (2.5 mM (Table 19)): 0.9X

CC(C)[C@@H]1CC[C@@H](C)C[C@H]1O [(1R,2S,5R)-(−)-menthol, (1R,2S,5R)-2-isopropyl-5-methylcyclohexanol]
Fold Induction of Tyrosinase Relative to Controls (0.5 mM (Table 19)): 2.0X | Fold Induction of Tyrosinase Relative to Controls (1 mM (Table 19)): 1.3X

CC1CCC2CC1C2(C)C [(1S)-(−)-α-pinane]
Fold Induction of Tyrosinase Relative to Controls (0.5 mM (Table 19)): 1.4X | Fold Induction of Tyrosinase Relative to Controls (1 mM (Table 19)): 1.1X | Fold Induction of Tyrosinase Relative to Controls (2.5 mM (Table 19)): 1.4X | Fold Induction of Tyrosinase Relative to Controls (5 mM (Table 19)): 1.2X

CC(C)[C@H]1CC[C@H](C)C[C@@H]1O [(1S,2R,5S)-(+)-menthol, (1S,2R,5S)-2-isopropyl-5-methylcyclohexanol]
Fold Induction of Tyrosinase Relative to Controls (0.5 mM (Table 19)): 0.7X | Fold Induction of Tyrosinase Relative to Controls (1 mM (Table 19)): 1.3X

CC1(C)[C@@H]2C[C@@H](O)[C@@](C)(O)[C@H]1C2 [(1S,2S,3R,5S)-(+)-pinanediol]
Fold Induction of Tyrosinase Relative to Controls (1 mM (Table 19)): 9.9X | Fold Induction of Tyrosinase Relative to Controls (2.5 mM (Table 19)): 68.4X | Fold Induction of Tyrosinase Relative to Controls (5 mM (Table 19)): 39.9X

CC1(C)[C@@H]2CC(=O)[C@@](C)(O)[C@H]1C2 [(1S,2S,5S,)-2-hydroxy-3-pinanone]
Fold Induction of Tyrosinase Relative to Controls (1 mM (Table 19)): 4.1X | Fold Induction of Tyrosinase Relative to Controls (2.5 mM (Table 19)): 37.1X | Fold Induction of Tyrosinase Relative to Controls (5 mM (Table 19)): 94.9X | relative melanogenic potency in S91 cells (in words): about half as potent as (1R, 2R, 3S, 5R)-(−)-pinanediol

CC1=CC[C@@H](C(C)(C)O)CC1 [(−)-a-terpineol, (S)-p-menth-1-en-8-ol]
Fold Induction of Tyrosinase Relative to Controls (0.5 mM (Table 19)): 6.2X | Fold Induction of Tyrosinase Relative to Controls (1 mM (Table 19)): 7.1X | Fold Induction of Tyrosinase Relative to Controls (2.5 mM (Table 19)): 4.7X

Cl.Cl.O=S(=O)(NCCNCC=Cc1ccc(Br)cc1)c1cccc2cnccc12 [H-89, reference compound]
effect on induction of tyrosinase by 5-NBene-2,2-DM in S91 cells (in words): augmentation of basal and 5-NBene-2,2-DM-induced tyrosinase levels | Tyrosinase Relative to Control (1 uM H-89): 1.3X | Tyrosinase dpm/hr/ug Protein (1 uM H-89): 507 dpm/hr/ug Protein | Tyrosinase Relative to Control (10 uM H-89): 3.1X | Tyrosinase dpm/hr/ug Protein (10 uM H-89): 1236 dpm/hr/ug Protein

COC(=O)[C@@]1(OC)C[C@H]2O[C@]1(C)n1c3ccccc3c3c4c(c5c6ccccc6n2c5c31)C(=O)N(C)C4 [KT5823, reference compound]
effect on induction of melanogenesis by 5-NBene-2,2-DM in S91 cells (in words): reduced induction of melanogenesis by 5-NBene-2,2-DM

O=C1C(Nc2ccccc2)=CC(=O)c2ncccc21 [LY83583, 6-anilino-5,8-quinolinequinone, reference compound]
effect on induction of melanogenesis by 5-NBene-2,2-DM in S91 cells (in words): reduced induction of melanogenesis by 5-NBene-2,2-DM

C1CC2CCC1C2 [NBane, Norbornane]
induction of tyrosinase in S91 cells compared with 5-NBene-2,2-DM (FIG. 2): Lesser induction | induction of tyrosinase (1 or 5 mM (FIG. 2)): 2 fold | induction of tyrosinase relative to untreated or ethanol (ETOH) treated control S91 cells (FIG. 2): 2 fold

OCC1(CO)CC2CCC1C2 (stereo not shown) [NBane-2,2-DM, norbornane-2,2-dimethanol]
induction of tyrosinase in S91 cells compared with 5-NBene-2,2-DM (FIG. 2): equivalent potency

CC1(C)N([O])C(c2ccccc2)=[N+]([O-])C1(C)C [PTIO, 2-phenyl-4,4,5,5-tetramethylimidazoline-1-oxyl-3-oxide, reference compound]
effect on induction of melanogenesis by 5-NBene-2,2-DM in S91 cells (in words): reduced induction of melanogenesis by 5-NBene-2,2-DM

CCSC(=N)N [S-EITU, S-ethylisothiourea, reference compound]
tyrosinase activity in S91 cells (in words) (1000 nM S-EITU): complete ablation of tyrosinase activity

CC1(C)C2CCC1(C)C(O)C2 (stereo not shown) [borneol]
Fold Induction of Tyrosinase Relative to Controls (0.5 mM (Table 19)): 3.7X | Fold Induction of Tyrosinase Relative to Controls (1 mM (Table 19)): 2.1X | Fold Induction of Tyrosinase Relative to Controls (2.5 mM (Table 19)): 3.7X | relative melanogenic potency in S91 cells (in words): much less activity

CC1CCC(C(C)(C)O)C(O)C1 (stereo not drawn) [cis-p-menthane-3,8-diol]
Fold Induction of Tyrosinase Relative to Controls (0.5 mM (Table 19)): 1.6X | Fold Induction of Tyrosinase Relative to Controls (1 mM (Table 19)): 3.0X | Fold Induction of Tyrosinase Relative to Controls (2.5 mM (Table 19)): 17.1X | Fold Induction of Tyrosinase Relative to Controls (5 mM (Table 19)): 11.6X
